# Experimental data as given in patent US20250368678A1, “19-NOR-C3,3-DISUBSTITUTED C21-AZACYCLO-S[…] AND METHOD FOR USING SAME” (SHANDONG LUYE PHARMACEUTICAL CO., LTD., priority 2022, published 2025).
# How the values were obtained:
# [1] = biological target: T1, α4β3δ GABA receptors (α4β3δ-HEK-FlpIn-TRex stable cell strain) (Homo sapiens, UniProt P28472+P48169); test: Whole-cell patch clamp, extrasynaptic functional activity (positive allosteric regulation of GABA-induced current); format: cell-based; settings: patch clamp -60 mV, GABA at EC10-20, α4β3δ-HEK-FlpIn-TRex cells
# T1 construct: expressed in transfected cells
# T1 sequence (P48169 36-554): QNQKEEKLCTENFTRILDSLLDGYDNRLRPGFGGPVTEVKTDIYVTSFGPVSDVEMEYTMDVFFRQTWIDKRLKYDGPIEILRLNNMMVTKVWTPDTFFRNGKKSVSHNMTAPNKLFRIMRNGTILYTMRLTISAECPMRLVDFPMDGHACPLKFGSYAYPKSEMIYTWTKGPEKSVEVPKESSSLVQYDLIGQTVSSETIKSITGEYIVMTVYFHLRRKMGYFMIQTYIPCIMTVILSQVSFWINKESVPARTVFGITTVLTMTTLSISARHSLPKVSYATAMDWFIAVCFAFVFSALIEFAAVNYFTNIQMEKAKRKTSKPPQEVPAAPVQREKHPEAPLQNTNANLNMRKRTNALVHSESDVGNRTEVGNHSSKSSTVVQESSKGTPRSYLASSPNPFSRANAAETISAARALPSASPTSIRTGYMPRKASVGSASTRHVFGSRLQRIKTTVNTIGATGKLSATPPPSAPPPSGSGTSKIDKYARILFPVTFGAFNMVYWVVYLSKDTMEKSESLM
# T1 sequence (P28472 26-473): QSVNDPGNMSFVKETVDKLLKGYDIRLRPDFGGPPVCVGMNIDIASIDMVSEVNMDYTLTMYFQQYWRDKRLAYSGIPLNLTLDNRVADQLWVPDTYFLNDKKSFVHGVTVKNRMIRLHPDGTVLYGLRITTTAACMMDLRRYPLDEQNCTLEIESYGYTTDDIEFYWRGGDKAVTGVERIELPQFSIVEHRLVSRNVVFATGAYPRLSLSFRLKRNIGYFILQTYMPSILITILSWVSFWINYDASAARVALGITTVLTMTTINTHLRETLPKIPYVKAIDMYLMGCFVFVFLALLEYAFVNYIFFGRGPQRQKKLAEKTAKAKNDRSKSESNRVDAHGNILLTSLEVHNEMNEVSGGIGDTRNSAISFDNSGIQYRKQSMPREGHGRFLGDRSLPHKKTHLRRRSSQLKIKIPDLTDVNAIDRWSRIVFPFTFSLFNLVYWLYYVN
# T1 sequence (O14764 25-452 partner): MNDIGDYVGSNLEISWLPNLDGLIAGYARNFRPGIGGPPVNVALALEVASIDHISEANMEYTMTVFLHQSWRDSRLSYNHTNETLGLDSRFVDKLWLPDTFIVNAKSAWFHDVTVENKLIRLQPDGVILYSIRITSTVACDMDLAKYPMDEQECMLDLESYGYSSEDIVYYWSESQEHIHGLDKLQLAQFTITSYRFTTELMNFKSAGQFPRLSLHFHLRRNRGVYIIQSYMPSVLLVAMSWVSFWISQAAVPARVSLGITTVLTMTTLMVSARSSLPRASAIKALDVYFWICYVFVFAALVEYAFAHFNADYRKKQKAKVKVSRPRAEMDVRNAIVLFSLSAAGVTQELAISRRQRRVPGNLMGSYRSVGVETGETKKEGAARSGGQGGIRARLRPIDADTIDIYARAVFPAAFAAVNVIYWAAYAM
# Method: (§1) The α4β3δ-HEK-FlpIn-TRex stable cell strain was cultured in DMEM+10% FBS complete culture medium, with the selective antibiotics being 10 μg/mL Blasticidin, 100 µg/mL Zeocin, 100 µg/mL Hygromycin, and 0.2 μg/mL Puromycin. The α1β2γ2-CHO-TRex stable cell strain was cultured in DMEM/F12+10% FBS complete culture medium, with the selective antibiotics being 10 μg/mL Blasticidin, 100 μg/mL Zeocin, 300 μg/mL Hygromycin, and […] Puromycin.
# (§2) The day before the patch clamp experiment, cells were seeded onto 12 mm polylysine-coated coverslips and then cultured in 35 mm culture dishes, and tetracycline ([…]) was added to induce the expression of GABA receptors. The extracellular fluid had the following composition (in mM): 140 NaCl, 3 KCl, 1.5 MgCl2, 2 CaCl2, 10 HEPES, and 10 Glucose. After thorough mixing, NaOH was added to adjust the pH to 7.4, and sucrose was added to adjust the osmotic pressure to 300-320 mOsm. The fluid was stored at 4° C. The electrode internal solution had the following composition (in mM): 145 KCl, 1 MgCl2, 5 EGTA, 10 HEPES, and 5 MgATP. After thorough mixing, KOH was added to adjust the pH to 7.3, and sucrose was added to adjust the osmotic pressure to 290-300 mOsm. The solution was filtered through a […] before use.
# (§3) Whole-cell patch clamp recording was mainly employed in this experiment. The membrane potential was clamped at −60 mV, and receptors were activated using GABA at an EC10-20 concentration ([…]). The test compounds were dissolved in 0.1% DMSO, and perfusion was performed for 30 s prior to GABA stimulation. Finally, the positive allosteric regulating effects of the test compounds on α1β2γ2 or α4β3δ were determined.
# (§4) The experimental result for each concentration was expressed as a fold increase in the GABA-induced current caused by the compound. […] At least 5 concentrations are tested to obtain a complete EC50 curve and EC50 values. All experiments were repeated on no less than 3 cells, and data processing was completed using GraphPad prism software. The dose-response curves were fitted using the Hill equation, and the half-maximal activating concentration EC50 and Emax were finally obtained.
# [2] = biological target: T2, α1β2γ2 GABA receptors (α1β2γ2-CHO-TRex stable cell strain) (Homo sapiens, UniProt P14867+P47870); test: Whole-cell patch clamp, intrasynaptic functional activity (positive allosteric regulation of GABA-induced current); format: cell-based; settings: patch clamp -60 mV, GABA at EC10-20, α1β2γ2-CHO-TRex cells
# T2 construct: expressed in transfected cells
# T2 sequence (P14867 28-456): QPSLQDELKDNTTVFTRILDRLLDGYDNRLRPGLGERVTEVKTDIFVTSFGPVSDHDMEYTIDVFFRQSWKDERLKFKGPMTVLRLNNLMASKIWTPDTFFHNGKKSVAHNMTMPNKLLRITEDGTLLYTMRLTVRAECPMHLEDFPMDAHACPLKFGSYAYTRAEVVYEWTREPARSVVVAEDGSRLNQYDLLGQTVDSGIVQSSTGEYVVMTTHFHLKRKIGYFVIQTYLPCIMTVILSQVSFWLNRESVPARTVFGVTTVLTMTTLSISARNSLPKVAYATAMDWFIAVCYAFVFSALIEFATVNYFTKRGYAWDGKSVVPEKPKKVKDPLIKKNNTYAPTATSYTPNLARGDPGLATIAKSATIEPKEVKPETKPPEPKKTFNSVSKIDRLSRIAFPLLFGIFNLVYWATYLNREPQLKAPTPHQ
# T2 sequence (P47870 25-512 limits assumed): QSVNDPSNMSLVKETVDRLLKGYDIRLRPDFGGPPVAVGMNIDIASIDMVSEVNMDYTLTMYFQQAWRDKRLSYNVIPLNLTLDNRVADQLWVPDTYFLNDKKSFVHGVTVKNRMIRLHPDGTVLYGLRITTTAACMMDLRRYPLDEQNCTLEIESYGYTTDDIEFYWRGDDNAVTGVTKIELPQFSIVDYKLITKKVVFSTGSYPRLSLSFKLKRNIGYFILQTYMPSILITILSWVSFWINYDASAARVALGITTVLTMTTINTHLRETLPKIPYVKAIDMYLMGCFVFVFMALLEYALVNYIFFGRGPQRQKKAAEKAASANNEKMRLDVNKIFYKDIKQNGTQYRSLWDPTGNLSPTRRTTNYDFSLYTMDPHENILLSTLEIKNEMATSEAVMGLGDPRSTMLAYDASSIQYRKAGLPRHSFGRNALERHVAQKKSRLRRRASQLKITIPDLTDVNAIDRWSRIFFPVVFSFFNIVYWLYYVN
# T2 sequence (P18507 40-475 partner): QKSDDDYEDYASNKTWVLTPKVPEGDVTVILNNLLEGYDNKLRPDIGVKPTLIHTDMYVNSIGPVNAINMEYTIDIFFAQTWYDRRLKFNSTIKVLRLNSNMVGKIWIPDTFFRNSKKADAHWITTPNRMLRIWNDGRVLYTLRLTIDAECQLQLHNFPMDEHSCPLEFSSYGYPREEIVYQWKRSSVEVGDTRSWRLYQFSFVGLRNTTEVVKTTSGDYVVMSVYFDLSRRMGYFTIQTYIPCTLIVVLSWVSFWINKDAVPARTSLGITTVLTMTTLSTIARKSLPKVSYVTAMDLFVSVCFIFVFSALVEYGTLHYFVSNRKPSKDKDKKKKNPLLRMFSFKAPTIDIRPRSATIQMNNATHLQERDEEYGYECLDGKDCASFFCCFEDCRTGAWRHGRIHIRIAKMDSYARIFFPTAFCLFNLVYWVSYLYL
# Method: as §1, §2, §3, §4
# [3] = In vitro liver microsomal stability assay, rat; format: in vitro ADME; settings: for CLint scaled at 1 µM / T1/2 / microsomal CLint at 1 µM / half-life at 1 µM: Rat liver microsomes; for Remaining amount % at 60 min: Rat liver microsomes 0.5 mg/mL, NADPH; for microsomal CLint at 1 µM: read-out: CLint(mic)
# Method: (§5) 1) Preparation of working solutions of test samples: The test samples were diluted with acetonitrile to 100 M.
# (§6) 2) Preparation of a working solution of liver microsomes: liver microsomes were diluted with 100 mM phosphate-buffered saline to 0.56 mg/mL.
# (§7) 3) Preparation of a working solution of reduced nicotinamide adenine dinucleotide (NADPH): A proper amount of NADPH was weighed out and diluted with phosphate-buffered saline to 20 mM, and an equal volume of a 60 mM MgCl2 solution was added.
# (§8) 4) Preparation of a stop solution: Tolbutamide was diluted with acetonitrile to 20 ng/mL, serving as a stop solution containing an internal standard.
# (§9) 1) Incubation anti-adsorption EP tubes were prepared and labeled with species, test/control sample, time points (0, 5, 10, 20, 30, 60 min, Blank60, and NCF60), etc.
# (§10) 2) 2 L of test or control sample working solution, diluted with acetonitrile to 100 M, and 178 L of liver microsome working solution were added to each tube. For the Blank60 tube, 2 L of acetonitrile was added instead of a test sample. The tubes were pre-incubated in a 37° C. water bath for about 10 min, with each sample tested in triplicate.
# (§11) 3) After the pre-incubation was complete, 20 L of NADPH working solution was added to each tube except for the 0 min and NCF60 tubes to start reactions, and 20 L of phosphate-buffered saline (containing 30 mM MgCl2) was added to the NCF60 tube. In the incubation system, the final concentrations of the test and control samples were 1 M, the final concentration of liver microsomes was 0.5 mg/mL, the final concentration of NADPH was 1 mM, and the final concentration of MgCl2 was 3 mM.
# (§12) 4) For the 0 min sample, 600 L of stop solution was added before adding the NADPH working solution. After each sample was incubated for its respective time, 600 L of stop solution was added to stop the reaction.
# (§13) 5) After the reaction was stopped, each sample was vortexed for 30 s and then centrifuged at 13,500 rpm for 10 min. 100 L of the supernatant was transferred to an EP tube, and 100 L Milli-Q water was added. The mixture was well mixed by vortexing and analyzed by LC-MS/MS.
# (§14) 6) Testosterone and dextromethorphan were used as positive control samples under the same conditions to assess the stability and reliability of the system.
# (§15) Parameters of the test samples, including their half-lives, intrinsic clearance rates in liver microsomes, and hepatic intrinsic clearance rates, were calculated based on the percentage of test sample remaining.
# [4] = In vitro liver microsomal stability assay, human; format: in vitro ADME; settings: for CLint scaled at 1 µM / T1/2 / microsomal CLint at 1 µM / half-life at 1 µM: Human liver microsomes; for Remaining amount % at 60 min: Human liver microsomes 0.5 mg/mL, NADPH; for microsomal CLint at 1 µM: read-out: CLint(mic)
# Method: as §5, §6, §7, §8, §9, §10, §11, §12, §13, §14, §15
SMILES,Emax [1] [%],Emax [2] [%],CLint scaled at 1 µM [3] [mL/min/kg],T1/2 [3] [min],Remaining amount % at 60 min [3] [%],microsomal CLint at 1 µM [3] [µL/min/mg],CLint scaled at 1 µM [4] [mL/min/kg],T1/2 [4] [min],Remaining amount % at 60 min [4] [%],microsomal CLint at 1 µM [4] [µL/min/mg],EC50 [1] [nM],EC50 [2] [nM],half-life at 1 µM [3] [min],half-life at 1 µM [4] [min]
C[C@@]1(O)CC[C@H]2[C@H](CC[C@@H]3[C@@H]2CC[C@]2(C)[C@@H](C(=O)Cn4cnn(-c5cccc(C(N)=O)c5)c4=O)CC[C@@H]32)C1 [Compound 19],386,764,141,17.6,9.5,79,26,28.5,42.2,29,–,–,–,–
C[C@@]1(O)CC[C@H]2[C@H](CC[C@@H]3[C@@H]2CC[C@]2(C)[C@@H](C(=O)Cn4cnn(-c5cccc(F)n5)c4=O)CC[C@@H]32)C1 [Compound 20],966,724,320,–,8.40,178,28,–,52.3,20,360,368,7.8,70.7
C[C@@]1(O)CC[C@H]2[C@H](CC[C@@H]3[C@@H]2CC[C@]2(C)[C@@H](C(=O)Cn4cnn(-c5ccnc(F)c5)c4=O)CC[C@@H]32)C1 [Compound 21],–,–,69,–,31.9,38,23,–,47.9,26,116,153,36.3,53.3
C[C@@]1(O)CC[C@H]2[C@H](CC[C@@H]3[C@@H]2CC[C@]2(C)[C@@H](C(=O)Cn4cnn(-c5cccc(N)c5)c4=O)CC[C@@H]32)C1 [Compound 22],–,786,146,–,8.9,81,320,–,8.6,178,213,349,17.1,7.8
C[C@@]1(O)CC[C@H]2[C@H](CC[C@@H]3[C@@H]2CC[C@]2(C)[C@@H](C(=O)Cn4cnn(-c5cncc(F)c5)c4=O)CC[C@@H]32)C1 [Compound 23],601,618,72,–,31.7,40,21,–,53.4,23,150,145,34.7,60.3
C[C@@]1(O)CC[C@H]2[C@H](CC[C@@H]3[C@@H]2CC[C@]2(C)[C@@H](C(=O)Cn4cnn(-c5cc(F)ccc5F)c4=O)CC[C@@H]32)C1 [Compound 24],743,347,118,–,14.7,66,17,–,56.1,19,79,340,21.1,71.4
C[C@@]1(O)CC[C@H]2[C@H](CC[C@@H]3[C@@H]2CC[C@]2(C)[C@@H](C(=O)Cn4cnn(-c5ccc(F)cc5F)c4=O)CC[C@@H]32)C1 [Compound 25],542,692,104,–,16.2,58,25,–,42,28,89,784,24.1,49.5
C[C@@]1(O)CC[C@H]2[C@H](CC[C@@H]3[C@@H]2CC[C@]2(C)[C@@H](C(=O)Cn4cnn(-c5cc(Cl)ccn5)c4=O)CC[C@@H]32)C1 [Compound 26],589,624,120,20.8,12.7,67,18,68.6,53.7,20,–,–,–,–
C[C@@]1(O)CC[C@H]2[C@H](CC[C@@H]3[C@@H]2CC[C@]2(C)[C@@H](C(=O)Cn4cnn(-c5cccc(F)c5F)c4=O)CC[C@@H]32)C1 [Compound 27],526,445,122,–,14.60,68,14,–,64.13,15,42,126,20.4,91.2
C[C@@]1(O)CC[C@H]2[C@H](CC[C@@H]3[C@@H]2CC[C@]2(C)[C@@H](C(=O)Cn4cnn(-c5cc(F)cc(F)c5)c4=O)CC[C@@H]32)C1 [Compound 28],441,–,43,–,48.8,24,21,–,61.6,24,35,154,57.8,58.2
C[C@@]1(O)CC[C@H]2[C@H](CC[C@@H]3[C@@H]2CC[C@]2(C)[C@@H](C(=O)Cn4cnn(C5CCCC5)c4=O)CC[C@@H]32)C1 [Compound 29],830,691,64,–,36.8,36,60,–,45.8,67,203,192,38.7,20.7
C[C@@]1(O)CC[C@H]2[C@H](CC[C@@H]3[C@@H]2CC[C@]2(C)[C@@H](C(=O)Cn4cnn(C5CCCCC5)c4=O)CC[C@@H]32)C1 [Compound 30],685,873,329,–,7.4,183,91,–,9.5,79,237,585,7.6,17.5
